Test results as given in the supplement of paper PMC12350171.

Assays:
[1] = system: Fusobacterium nucleatum subsp. Nucleatum; assay: IC25 growth inhibition; higher = less potent
Procedure, shortened: (§1)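 Under anaerobic conditions, OD578 was read hourly in a plate reader for at least three biological replicates of monocultures grown overnight in mGAM. Each culture started at an OD578 of 0.01 in pre-reduced plates holding twofold drug dilutions and 1% DMSO (or water). IC25 was reported as a tested interval: the lowest concentration where the monotonic median area under the growth curve dropped below the cutoff. That cutoff was 0.75.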

Escherichia coli ED1a = assay: IC25 growth inhibition; higher = less potent
Procedure, shortened: as §1

Roseburia intestinalis = assay: IC25 growth inhibition; higher = less potent
Procedure, shortened: as §1

[2] = system: Salmonella enterica typhimurium; assay: IC25 growth inhibition; higher = less potent
Procedure, shortened: as §1

[3] = system: Streptococcus parasanguinis; assay: IC25 growth inhibition; higher = less potent
Procedure, shortened: as §1

Clostridium ramosum = assay: IC25 growth inhibition; higher = less potent
Procedure, shortened: as §1

Bacteroides fragilis NT = assay: IC25 growth inhibition; higher = less potent
Procedure, shortened: as §1

[4] = system: Yersinia pseudotuberculosis; assay: IC25 growth inhibition; higher = less potent
Procedure, shortened: as §1

Eubacterium rectale = assay: IC25 growth inhibition; higher = less potent
Procedure, shortened: as §1

[5] = system: Clostridium saccharolyticum; assay: IC25 growth inhibition; higher = less potent
Procedure, shortened: as §1

Ruminococcus gnavus = assay: IC25 growth inhibition; higher = less potent
Procedure, shortened: as §1

Clostridium bolteae = assay: IC25 growth inhibition; higher = less potent
Procedure, shortened: as §1

Bacteroides uniformis = assay: IC25 growth inhibition; higher = less potent
Procedure, shortened: as §1

Clostridium perfringens = assay: IC25 growth inhibition; higher = less potent
Procedure, shortened: as §1

Collinsella aerofaciens = assay: IC25 growth inhibition; higher = less potent
Procedure, shortened: as §1

Streptococcus salivarius = assay: IC25 growth inhibition; higher = less potent
Procedure, shortened: as §1

[6] = system: Yersinia enterocolitica WA-314; assay: IC25 growth inhibition; higher = less potent
Procedure, shortened: as §1

Parabacteroides merdae = assay: IC25 growth inhibition; higher = less potent
Procedure, shortened: as §1

Vibrio cholerae = assay: IC25 growth inhibition; higher = less potent
Procedure, shortened: as §1

Dorea formicigenerans = assay: IC25 growth inhibition; higher = less potent
Procedure, shortened: as §1

Bacteroides vulgatus = assay: IC25 growth inhibition; higher = less potent
Procedure, shortened: as §1

Coprococcus comes = assay: IC25 growth inhibition; higher = less potent
Procedure, shortened: as §1

[7] = system: Bacteroides thetaiotaomicron; assay: IC25 growth inhibition; higher = less potent
Procedure, shortened: as §1

Shigella flexneri = assay: IC25 growth inhibition; higher = less potent
Procedure, shortened: as §1

[8] = system: Com21 synthetic gut community; assay: community biomass OD578 after 24 h drug treatment relative to untreated (fraction of untreated control); higher = more community growth; conditions: community: Com21 (Com20 + E. coli ED1a)
Procedure: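 Com21 (Com20 plus E. coli ED1a) was treated with drug for 24 h under anaerobic conditions in mGAM. Community OD578 was then measured and normalised to untreated Com21; mean of 3 biological replicates.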

[9] = drug pretreatment concentration 10 µM
[10] = drug pretreatment concentration 20 µM
[11] = drug pretreatment concentration 40 µM
[12] = drug pretreatment concentration 80 µM
[13] = drug pretreatment concentration 160 µM
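Throughout, for IC25 growth inhibition: lowest concentration where monotonic median growth AUC falls below 0.75 of drug-free control.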

Compound | IC25 growth inhibition [1] | IC25 growth inhibition (Escherichia coli ED1a) | IC25 growth inhibition (Roseburia intestinalis) | IC25 growth inhibition [2] | IC25 growth inhibition [3] | IC25 growth inhibition (Clostridium ramosum) | IC25 growth inhibition (Bacteroides fragilis NT) | IC25 growth inhibition [4] | IC25 growth inhibition (Eubacterium rectale) | IC25 growth inhibition [5] | IC25 growth inhibition (Ruminococcus gnavus) | IC25 growth inhibition (Clostridium bolteae) | IC25 growth inhibition (Bacteroides uniformis) | IC25 growth inhibition (Clostridium perfringens) | IC25 growth inhibition (Collinsella aerofaciens) | IC25 growth inhibition (Streptococcus salivarius) | IC25 growth inhibition [6] | IC25 growth inhibition (Parabacteroides merdae) | IC25 growth inhibition (Vibrio cholerae) | IC25 growth inhibition (Dorea formicigenerans) | IC25 growth inhibition (Bacteroides vulgatus) | IC25 growth inhibition (Coprococcus comes) | IC25 growth inhibition [7] | IC25 growth inhibition (Shigella flexneri) | community biomass OD578 ([8]; drug pretreatment concentration 5 µM) | community biomass OD578 [8, 9] | community biomass OD578 [8, 10] | community biomass OD578 [8, 11] | community biomass OD578 [8, 12] | community biomass OD578 [8, 13]
C[C@]12CCC3=C4CCC(=O)C=C4CC[C@H]3[C@@H]1CC[C@@]2(O)CC#N [Dienogest] | > 80 µM | > 80 µM | > 80 µM | > 80 µM | > 80 µM | > 80 µM | > 80 µM | > 80 µM | > 80 µM | > 80 µM | > 80 µM | > 80 µM | > 80 µM | > 80 µM | > 80 µM | > 80 µM | > 80 µM | > 80 µM | > 80 µM | > 80 µM | > 80 µM | > 80 µM | > 80 µM | > 80 µM | 0.994 | 0.987 | 1.01 | 0.995 | 0.975 | 
COc1cccc2c1C(=O)c1c(O)c3c(c(O)c1C2=O)C[C@@](O)(C(=O)CO)C[C@@H]3O[C@H]1C[C@H](N)[C@H](O)[C@H](C)O1 [Doxorubicin] | > 160 µM | > 160 µM | ≤ 40 µM | > 160 µM | ≤ 5 µM | ≤ 40 µM | > 160 µM | > 160 µM | ≤ 80 µM | ≤ 20 µM | ≤ 160 µM | ≤ 20 µM | > 160 µM | ≤ 40 µM | ≤ 10 µM | ≤ 10 µM | > 160 µM | > 160 µM | > 160 µM | ≤ 20 µM | > 160 µM | ≤ 40 µM | > 160 µM | > 160 µM |  | 0.978 | 0.949 | 0.918 | 0.881 | 0.907
C[C@H]1c2cccc(O)c2C(=O)C2=C(O)[C@]3(O)C(=O)C(C(N)=O)=C(O)[C@@H](N(C)C)[C@@H]3[C@@H](O)[C@@H]21 [Doxycycline] | < 1.25 µM | < 1.25 µM | < 1.25 µM | > 160 µM | < 1.25 µM | < 1.25 µM | < 1.25 µM | ≤ 40 µM | < 1.25 µM | < 1.25 µM | ≤ 40 µM | < 1.25 µM | < 1.25 µM | < 1.25 µM | < 1.25 µM | ≤ 40 µM | ≤ 40 µM | ≤ 40 µM | < 1.25 µM | < 1.25 µM | < 1.25 µM | ≤ 40 µM | < 1.25 µM | ≤ 40 µM |  | 0.062 | 0.06 | 0.064 | 0.065 | 0.064
CN[C@H](CC(C)C)C(=O)N[C@H]1C(=O)N[C@@H](CC(N)=O)C(=O)N[C@H]2C(=O)N[C@H]3C(=O)N[C@H](C(=O)N[C@H](C(=O)O)c4cc(O)cc(O)c4-c4cc3ccc4O)[C@H](O)c3ccc(c(Cl)c3)Oc3cc2cc(c3O[C@@H]2O[C@H](CO)[C@@H](O)[C@H](O)[C@H]2O[C@H]2C[C@](C)(N)[C@H](O)[C@H](C)O2)Oc2ccc(cc2Cl)[C@H]1O [Vancomycin] | ≤ 160 µM | > 160 µM | < 1.25 µM | > 160 µM | < 1.25 µM | ≤ 2.5 µM | ≤ 10 µM | > 160 µM | < 1.25 µM | < 1.25 µM | < 1.25 µM | < 1.25 µM | ≤ 20 µM | < 1.25 µM | < 1.25 µM | < 1.25 µM | > 160 µM | ≤ 10 µM | > 160 µM | < 1.25 µM | ≤ 2.5 µM | < 1.25 µM | ≤ 40 µM | > 160 µM |  |  |  |  |  | 
